Test results reported in patent US5814627A, “3, 5-disubstituted and 3, 4, 5-trisubstituted 2-isoxazolines and isoxazoles, process for their preparation and their use as pharmaceuticals” (Hoechst Aktienegesellschaft, priority 1994, dated 1998).
Counter-ions that a name gives are not always drawn.

Key:
[1] = test system: tumor cell line 20-10-5S (hybridoma cell line); assay: Test 8: Inhibition of tumor cell proliferation; assay type: cell-based; conditions: 48 h + 16 h tritiated thymidine incorporation; 20-10-5S cells
[2] = test system: PAF-induced asthma attack; assay: Test 7: antiasthmatic effect, PAF-induced asthma attack; assay type: in vivo; conditions: Cavia porcellus; i.d., 15 minutes before PAF; guinea pig
Protocol: Test 7: Testing for antiasthmatic effect
Anesthetized guinea pigs, which were cannulated in the jugular vein to allow injection of the PAF, were used for testing for antiasthmatic effect. The test preparations were also administered intravenously (i.v.), 5 min before PAF administration, into the blood stream through the same venous cannula, or else administered intraduodenally (i.d.), 15 minutes before the PAF, through an opening in the duodenum which had been installed and cannulated surgically. The bronchial width was recorded in an overflow pneumonogram before and after administering the preparation. Evaluation: ED50 in mg/kg i.d. as compared with the PAF-induced asthma attack.

adjuvant/arthritis model = assay: Test 6: antiarthritic effect in the adjuvant/arthritis model; assay type: in vivo, rat (Wistar-Lewis); conditions: Rattus norvegicus, po, 408 h, daily for 17 days, rat, read-out: Test 6 Paw volume (% inhibition); for inhibition in vivo at 50 mg/kg: 50 mg/kg orally; for inhibition in vivo at 25 mg/kg: 25 mg/kg orally
Protocol: Male rats of a Wistar-Lewis strain (Mollegaard/Denmark) were used as experimental animals. The body weight is between 160 and 200 g. Subplantar injection of 0.1 ml of Freund's adjuvant (=6 mg of Mycobacterium butyricum suspension, Difco Lab./Detroit, Mich. USA, per ml of heavy white paraffin oil, Merck, Darmstadt) into the root of the tail resulted, on the 10th to 14th day of the experiment, in immunopathological processes and chronic inflammations, particularly in the form of arthritic and periarthritic symptoms, at other sites in the body (secondary lesions). The animals were fed ad libitum with the standard feed Altromin-R, from Altrogge, Lage, and provided with tap water. The animals were given 60 mg of codein per kg as an analgesic from the 14th day to the end of the experiment. The test substances were administered orally as a CMC suspension, in an injection volume of 1 ml/100 g of body weight, on each day (in all for 17 days), beginning on the day of the adjuvant administration. The volumes of each of the hind paws, and the body weight, were measured on the first and on the 18th day of the experiment. Diminution in the increase of paw volume, as compared with the untreated control group, served as the criterion of activity, with the two hind paws being averaged.

[3] = test system: polymorphonuclear leucocytes (PMNL); assay: Test 2: Release of oxygen radicals from human PMNL; assay type: cell-based; conditions: read-out: Test 2 residual activity (release of oxygen radicals), percent of control
Protocol: Isolation of polymorphonuclear leucocytes (PMNL) from human peripheral blood for carrying out tests 1 and 2 10 ml of human blood were diluted with 10 ml of HBSS (Serva) and underlaid with 15 ml of Lymphoprep (Dr. Molter GmbH, Heidelberg). The sample was then centrifuged for 25 minutes at 400×g (1600 revolutions per minute, Minifuge 2, Heraeus, Osterode). […] A white ring, composed of mononuclear cells, is located between these two phases. The lowermost phase is composed of erythrocytes which are covered with a white layer of PMNL. The uppermost phase, and also the Lymphoprep and the white ring, were carefully removed using a syringe. The remaining sediment was carefully resuspended in 15 ml of 3% dextran in PM16 (mw: 485,000, Sigma, Deisenhofen). The suspension was then left to stand at room temperature for one hour. During this time, the erythrocytes sedimented while the PMNL remained in the supernatant. The supernatant was removed, diluted with an approximately equal volume of PM16, and centrifuged for 15 minutes at 400×g. Should the PMNL sediment be heavily contaminated with erythrocytes, it is necessary to carry out a hypotonic lysis. To do this, the sediment was resuspended in 750 μl of water. After exactly 15 seconds, the suspension was diluted with approximately 7 ml of PM16 and centrifuged for 10 minutes at 400×g. If necessary, this lysis was repeated once more. Otherwise, the PMNL sediment was resuspended in a suitable medium.
The PMNL were resuspended (5·10^6 cells/ml) in Dulbecco's PBS, supplemented with 7.5 mM glucose. Care must be taken to ensure that the PMNL are free of erythrocytes. 100 μl of PMNL, 700 μl of PBS+glucose and 100 μl of cytochrome C (9.38 mg/ml of PBS+glucose) were mixed in a semi-microcuvette. 100 μl of PMNL, 500 μl of PBS+glucose, 100 μl of cytochalasin B ([…]), 100 μl of TNF (0.05 ng) and 100 μl of cytochrome C (9.38 mg/ml of PBS+glucose) were mixed for the fMLP-induced release of oxygen. Measurements were made in a double-beam photometer meter (Perkin-Elmer 552 S) at a wavelength of 550 nm. The measurement range is 0-1 extinction units. The cuvettes were temperature-equilibrated to 37° C. The reference cuvette additionally contained 10 μl of SOD (6 mg of SOD/ml of PBS+glucose). Following a preincubation of 5 minutes, the reaction is started with 100 μl of inducer. The reaction is started with 1·10^-7 mol of fMLP.
(§1) The values in the table show the concentration of the test substance which was employed in μM and, besides this, the residual activity measured in percent based on the control, which was set to be 100%. The interleukin is additionally indicated in test 4.

[4] = test system: cyclooxygenase-dependent thrombocyte aggregation; assay: Test 5: Cyclooxygenase-dependent thrombocyte aggregation; assay type: cell-based, human; conditions: Homo sapiens, arachidonic acid as inducer, read-out: Test 5 residual activity (cyclooxygenase-dependent thrombocyte aggregation), percent of control
Procedure, shortened: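 Citrated human platelet-rich plasma was preincubated 10 min at 37 °C with test substance diluted 1:30 in 50 mM Tris-HCl pH 8.0, 90 mM NaCl. Aggregation was triggered with arachidonic acid (5 mg/ml, 20 μl) under 800 rpm stirring in an aggregometer. Values are tested concentration (μM) and residual activity as % of control.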

[5] = test system: polymorphonuclear leucocytes (PMNL); assay: Test 1: Release of proteolytic activity from human PMNL; assay type: cell-based; conditions: Homo sapiens, PMNL, read-out: Test 1 residual activity (release of proteolytic activity), percent of control
Protocol: Isolation of polymorphonuclear leucocytes (PMNL) from human peripheral blood for carrying out tests 1 and 2 10 ml of human blood were diluted with 10 ml of HBSS (Serva) and underlaid with 15 ml of Lymphoprep (Dr. Molter GmbH, Heidelberg). […] A white ring, composed of mononuclear cells, is located between these two phases. The lowermost phase is composed of erythrocytes which are covered with a white layer of PMNL. The uppermost phase, and also the Lymphoprep and the white ring, were carefully removed using a syringe. The remaining sediment was carefully resuspended in 15 ml of 3% dextran in PM16 (mw: 485,000, Sigma, Deisenhofen). The suspension was then left to stand at room temperature for one hour. During this time, the erythrocytes sedimented while the PMNL remained in the supernatant. The supernatant was removed, diluted with an approximately equal volume of PM16, and centrifuged for 15 minutes at 400×g. Should the PMNL sediment be heavily contaminated with erythrocytes, it is necessary to carry out a hypotonic lysis. To do this, the sediment was resuspended in 750 μl of water. After exactly 15 seconds, the suspension was diluted with approximately 7 ml of PM16 and centrifuged for 10 minutes at 400×g. If necessary, this lysis was repeated once more. Otherwise, the PMNL sediment was resuspended in a suitable medium. 250 μl of PMNL (5·10^6 cells/ml of PBS containing 7.5 mM glucose) were incubated at 37° C. for 20 minutes with 1 μl of test substance. 1 μl of cytochalasin B (5 μg/ml of test mixture) was then added and the mixture was incubated at 37° C. for a further 5 minutes. Following the addition of 1 μl of […] necrosis factor alpha (TNF; 30 ng/ml of test mixture), the incubation was continued for 5 minutes. The release was started using 1 μl of fMLP (10 nmol/l of test mixture). After 60 minutes at 37° C., the reaction was terminated by cooling the samples down to 0° C. The samples were then centrifuged, and the supernatant was removed and frozen down. Cytochalasin B and fMLP were dissolved in DMSO and TNF was diluted with buffer. 50 μl of the supernatant were mixed with 175 μl of buffer (100 mM HEPES, pH 7.5; 500 mM NaCl) in a 96-well microtiter plate. Following the addition of 25 μl of substrate (methoxysuccinyl-[…]-nitroanilide), the extinction of each well was measured at 405 nm after 0, 5, 10, 15, 30 and 60 minutes. […] The interleukin is additionally indicated in test 4.

[6] = test system: IL-1α release from mononuclear cells; assay: Test 4: cytokine release from LPS-stimulated mononuclear cells, IL-1α; assay type: cell-based; conditions: Homo sapiens, read-out: Test 4 residual activity (IL-1α release), percent of control
Protocol: (§2) Test 4. Stimulation of the cytokine release
(§3) Isolation of mononuclear cells from human blood
(§4) 10 ml of human blood, stabilized with 1 ml of 3.8% sodium citrate solution, were diluted with 10 ml of PM16 (Serva, Heidelberg) and underlaid with 15 ml of Lymphoprep (Dr. Molter GmbH, Heidelberg). The samples were centrifuged, at room temperature for 40 minutes, at 400×g (1600 rpm, Minifuge 2, Heraeus, Osterode). The mononuclear cells are visible as a white ring at the Lymphoprep/plasma interface. This ring was carefully removed with a syringe, diluted with an equal volume of PM16, and centrifuged for 10 minutes at 400×g. The sediment was washed with approximately 10 ml of RPMI1640 (+300 mg/l L-glutamine, Gibco, Eggenstein) (Wallis, 1986). After the cells had been resuspended in approximately 1 ml of RPMI1640 (+300 mg/l L-glutamine+25 mM HEPES+100 μg/ml streptomycin+100 μg/ml penicillin), the cell density was determined using a Coulter Counter JT (Coulter Diagnostics) and adjusted to 5*10^6 /ml. Typically, the cells are composed of 90% lymphocytes and 10% monocytes.
230 μl of mononuclear cells were incubated, at 37° C.; 5% CO2 for 20-22 hours (5 hours in the case of IL-6), with 10 μl of test substance ([…]) and 10 μl of lipopolysaccharide (LPS; 500 μg dissolved in 1 ml of DMSO and diluted 1/10 with water prior to beginning the test; from Salmonella abortus equi, Sigma, Deisenhofen). The samples were cooled down to 0° C. in an ice bath and centrifuged in a Sigma centrifuge (2 minutes; 2000 rpm). Aliquots of the supernatant are measured with an ELISA (Biermann, Bad Nauheim). The abbreviation IL stands for interleukin and TNF for tumor necrosis factor alpha.
as §1

[7] = test system: TNFα release from mononuclear cells; assay: Test 4: cytokine release from LPS-stimulated mononuclear cells, TNFα; assay type: cell-based; conditions: Homo sapiens, read-out: Test 4 residual activity (TNFα release), percent of control
Protocol: as §2, §3, §4
230 μl of mononuclear cells were incubated, at 37° C.; 5% CO2 for 20-22 hours (5 hours in the case of IL-6), with 10 μl of test substance (10 μM in DMSO/water, 1/10) and 10 μl of lipopolysaccharide (LPS; 500 μg dissolved in 1 ml of DMSO and diluted 1/10 with water prior to beginning the test; from Salmonella abortus equi, Sigma, Deisenhofen). The samples were cooled down to 0° C. in an ice bath and centrifuged in a Sigma centrifuge (2 minutes; 2000 rpm). Aliquots of the supernatant are measured with an ELISA (Biermann, Bad Nauheim). The abbreviation IL stands for interleukin and TNF for tumor necrosis factor alpha.
as §1

Row | SMILES | IC50 [1] | activity at 10 µM [3] | activity at 10 µM [4] | activity at 10 µM [5] | activity at 100 µM [5] | also measured
1 | CC(=O)C1CC(c2cc(C(C)(C)C)c(O)c(C(C)(C)C)c2)=NO1 (stereo not drawn) [Example 13] | 6.1 µM | 65% | 98% | 77% | 20% | ED50 [2]: ~50 mg/kg; inhibition in vivo at 50 mg/kg (adjuvant/arthritis model): 84%; activity at 25 µM ([3]; 25 μM): 22%
2 | CC(OC(=O)[C@@H](N)Cc1ccccc1)C1CC(c2cc(C(C)(C)C)c(O)c(C(C)(C)C)c2)=NO1 (stereo partly drawn) [Example 73, L-Phenylalanine-1-(3-(4-hydroxy-3,5-di-tert-butylphenyl)-2-isoxazolin-5-yl)ethyl ester hydrochloride] | – | 9% | – | – | – | inhibition in vivo at 50 mg/kg (adjuvant/arthritis model): 73%; activity at 1 µM [3]: 100%; activity at 25 µM ([4]; 25 μM): 100%
3 | C[C@@H](O)[C@@H]1CC(c2cc(C(C)(C)C)c(O)c(C(C)(C)C)c2)=NO1 (relative stereo) [Example 19] | < 5 µM | 94% | 100% | 78% | 20% | inhibition in vivo at 25 mg/kg (adjuvant/arthritis model): 85%
4 | CCOC(=O)C(C)(C)OCc1cc(-c2cc(C(C)(C)C)c(O)c(C(C)(C)C)c2)no1 [Example 35] | – | – | – | – | – | activity at 10 µM [6]: 84%; activity at 100 µM ([4]; 100 μM): 94%
5 | CC(=O)c1cc(-c2cc(C(C)(C)C)c(O)c(C(C)(C)C)c2)no1 [Example 59, 3-(4-Hydroxy-3,5-di-tert-butylphenyl)-5-acetylisoxazole] | 30 µM | 48% | – | 61% | 35% | ED50 [2]: 1 to 3 mg/kg; activity at 1 µM [3]: 135%; activity at 1 µM ([5]; 1 μM): 91%
6 | CC(C)(C)c1cc(-c2cc(CCCO)on2)cc(C(C)(C)C)c1O [Example 26] | < 5 µM | – | 94% | – | – | activity at 10 µM [7]: 88%
7 | CC(OC(=O)[C@@H](N)Cc1ccccc1)c1cc(-c2cc(C(C)(C)C)c(O)c(C(C)(C)C)c2)no1 (stereo partly drawn) [Example 70, L-Phenylalanine-1-(3-(4-hydroxy-3,5-di-tert-butylphenyl)isoxazol-5-yl)ethylester hydrochloride] | 5 µM | 22% | – | – | – | inhibition in vivo at 25 mg/kg (adjuvant/arthritis model): 59%
8 | CC(O)C1CC(c2cc(C(C)(C)C)c(O)c(C(C)(C)C)c2)=NO1 (stereo not drawn) [Example 18] | 5 to 10 µM | – | – | – | – | activity at 10 µM [6]: 89%; activity at 100 µM ([6]; 100 μM): 36%
